In patent US11759462B2, “Spirocyclic compounds as tryptophan hydroxylase inhibitors” (priority 2013, dated 2023) one finds IC50 data, which are given here for 24 compounds.

SMILES strings stand for the structures. Where only a bound is given, the exact number is not on record here.

This test addresses T1, Recombinant human TPH1 (MBP tagged) (Homo sapiens, UniProt P17752).
T1 construct: cloning full length human TPH1 cDNA in to a bacterial pMAL-c5E expression vector; made in house; host or cells: E. coli BL21 (DE3)
T1 sequence (P17752 1-444): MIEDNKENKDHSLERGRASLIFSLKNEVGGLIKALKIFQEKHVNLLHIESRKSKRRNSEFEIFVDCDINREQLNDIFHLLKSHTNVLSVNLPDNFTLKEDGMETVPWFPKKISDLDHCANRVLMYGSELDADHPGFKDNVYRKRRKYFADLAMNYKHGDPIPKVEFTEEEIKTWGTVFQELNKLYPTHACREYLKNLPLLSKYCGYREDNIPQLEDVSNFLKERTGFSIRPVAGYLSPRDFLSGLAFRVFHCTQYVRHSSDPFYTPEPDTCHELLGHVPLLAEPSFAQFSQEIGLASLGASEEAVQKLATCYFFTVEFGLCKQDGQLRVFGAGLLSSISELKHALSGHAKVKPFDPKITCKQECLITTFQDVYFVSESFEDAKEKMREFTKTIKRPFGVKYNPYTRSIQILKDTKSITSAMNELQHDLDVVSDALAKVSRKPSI
As to the kind of experiment: TPH1 in vitro inhibition assay (kinetic fluorescence). Format: biochemical. To be noted: read-out: TPH1 Range (TPH1 inhibition IC50). In a few lines:
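Final mix: 15 nM MBP-TPH1, 30 μM Trp, 36 μM 6-methyltetrahydropterin, 25 μM ferrous ammonium sulfate, 50 mM MES pH 7.1, 1% DMSO, room temperature.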

Consider `Nc1nc(NCc2ccccc2N2CCCCC2)nc(N2CCC3(CC2)CNC(C(=O)O)C3)n1` (stereo not drawn) [Example 39c, 8-(4-amino-6-((2-(piperidin-1-yl)benzyl)amino)-1,3,5-triazin-2-yl)-2,8-diazaspiro[4.5]decane-3-carboxylic acid], for which the IC50 (commonly the concentration needed to halve the response being measured) was in the range of 3000 to 10000 nM.

Consider `Nc1nc(NCc2cccc(-c3ccccc3)c2)nc(N2CCC3(CC2)CNC(C(=O)O)C3)n1` (stereo not drawn) [Example 39d, 8-(4-(([1,1′-biphenyl]-3-ylmethyl)amino)-6-amino-1,3,5-triazin-2-yl)-2,8-diazaspiro[4.5]decane-3-carboxylic acid], for which the IC50 was 3000 to 10000 nM.

Turning to `C[C@@H](Nc1nc(N)nc(N2CCC3(CC2)CNC(C(=O)O)C3)n1)c1ccc2ccccc2c1` (stereo partly drawn) [Example 39e, 8-(4-amino-6-(((R)-1-(naphthalen-2-yl)ethyl)amino)-1,3,5-triazin-2-yl)-2,8-diazaspiro[4.5]decane-3-carboxylic acid], the IC50 was in the range of 300 to 3000 nM. For the compound `Cc1ccn(-c2cc(Cl)ccc2[C@@H](Oc2nc(N)nc(N3CCC4(CC3)CNC(C(=O)O)C4)n2)C(F)(F)F)n1` (stereo partly drawn) [Example 40, 8-(4-amino-6-((R)-1-(4-chloro-2-(3-methyl-H-pyrazol-1-yl)phenyl)-2,2,2-trifluoroethoxy)-1,3,5-triazin-2-yl)-2,8-diazaspiro[4.5]decane-3-carboxylic acid], the IC50 was in the range of 300 to 3000 nM. Regarding `Nc1nc(NCc2ccccc2N2CCCCC2)cc(N2CCC3(CC2)CN[C@H](C(=O)O)C3)n1` [Example 41a, (S)-8-(2-Amino-6-((2-(piperidin-1-yl)benzyl)amino)pyrimidin-4-yl)-2,8-diazaspiro[4.5]decane-3-carboxylic acid], the IC50 lay within 300 to 3000 nM. As for `Nc1nc(NCc2c(Oc3ccccc3)cccc2N2CCCCC2)cc(N2CCC3(CC2)CN[C@H](C(=O)O)C3)n1` [Example 41b, (S)-8-(2-amino-6-((2-phenoxy-6-(piperidin-1-yl)benzyl)amino)pyrimidin-4-yl)-2,8-diazaspiro[4.5]decane-3-carboxylic acid], the IC50 is 300 to 3000 nM. Consider `Nc1nc(NCC23CC4CC(CC(C4)C2)C3)cc(N2CCC3(CC2)CN[C@H](C(=O)O)C3)n1` [Example 41c, (3S)-8-(6-(((3S,5S)-adamantan-1-ylmethyl)amino)-2-aminopyrimidin-4-yl)-2,8-diazaspiro[4.5]decane-3-carboxylic acid], for which the 50% inhibitory concentration (IC50) was 3000 to 10000 nM.

For `CC(Nc1cc(N2CCC3(CC2)CN[C@H](C(=O)O)C3)nc(N)n1)C12CC3CC(CC(C3)C1)C2` (stereo partly drawn) [Example 41d, (3S)-8-(6-((1-((1R,3S,5S)-adamantan-1-yl)ethyl)amino)-2-aminopyrimidin-4-yl)-2,8-diazaspiro[4.5]decane-3-carboxylic acid], the IC50 lay in the range of 3000 to 10000 nM. Then `Nc1nc(O[C@H](c2ccccc2-c2cccc(Cl)c2)C(F)(F)F)cc(N2CCC3(CC2)CN[C@H](C(=O)O)C3)n1` [Example 42a, (S)-8-(2-amino-6-((R)-1-(3′-chloro-[1,1′-biphenyl]-2-yl)-2,2,2-trifluoroethoxy)pyrimidin-4-yl)-2,8-diazaspiro[4.5]decane-3-carboxylic acid], with < 50 nM; and `Nc1nc(O[C@H](c2ccccc2-c2cccc(F)c2)C(F)(F)F)cc(N2CCC3(CC2)CN[C@H](C(=O)O)C3)n1` [Example 42b, (S)-8-(2-amino-6-((R)-2,2,2-trifluoro-1-(3′-fluoro-[1,1′-biphenyl]-2-yl)ethoxy)pyrimidin-4-yl)-2,8-diazaspiro[4.5]decane-3-carboxylic acid], with 50 to 300 nM; and `Cc1ccn(-c2cc(Cl)ccc2[C@@H](Oc2cnnc(N3CCC4(CC3)CN[C@H](C(=O)O)C4)c2)C(F)(F)F)n1` [Example 43, (S)-8-(5-((R)-1-(4-chloro-2-(3-methyl-H-pyrazol-1-yl)phenyl)-2,2,2-trifluoroethoxy)pyridazin-3-yl)-2,8-diazaspiro[4.5]decane-3-carboxylic acid], with 3000 to 10000 nM. `Cc1ccn(-c2ccccc2[C@@H](Oc2ccnc(N3CCC4(CC3)CN[C@H](C(=O)O)C4)c2)C(F)(F)F)n1` [Example 44, (S)-8-(4-((R)-2,2,2-trifluoro-1-(2-(3-methyl-1H-pyrazol-1-yl)phenyl)ethoxy)pyridin-2-yl)-2,8-diazaspiro[4.5]decane-3-carboxylic acid]: the IC50 lay in the range of 300 to 3000 nM. Next, `Cc1ccn(-c2cc(Cl)ccc2[C@@H](Oc2ccnc(N3CCC4(CC3)CN[C@H](C(=O)O)C4)c2)C(F)(F)F)n1` [Example 45, (S)-8-(4-((R)-1-(4-chloro-2-(3-methyl-H-pyrazol-1-yl)phenyl)-2,2,2-trifluoroethoxy)pyridin-2-yl)-2,8-diazaspiro[4.5]decane-3-carboxylic acid]: 50 to 300 nM; `Cc1ccn(-c2cc(Cl)ccc2[C@@H](Oc2cc(Oc3ccccc3)nc(N3CCC4(CC3)CNC(C(=O)O)C4)n2)C(F)(F)F)n1` (stereo partly drawn) [Example 46, 8-(4-((R)-1-(4-chloro-2-(3-methyl-H-pyrazol-1-yl)phenyl)-2,2,2-trifluoroethoxy)-6-phenoxypyrimidin-2-yl)-2,8-diazaspiro[4.5]decane-3-carboxylic acid]: 3000 to 10000 nM; `Nc1nc(OC(c2c(Br)cccc2Br)C(F)(F)F)cc(N2CCC3(CC2)CN[C@H](C(=O)O)C3)n1` (stereo partly drawn) [Example 47, (3S)-8-(2-Amino-6-(1-(2,6-dibromophenyl)-2,2,2-trifluoroethoxy)pyrimidin-4-yl)-2,8-diazaspiro[4.5]decane-3-carboxylic acid]: 300 to 3000 nM. Take `Nc1nc(O[C@H](c2cc(Br)ccc2Br)C(F)(F)F)cc(N2CCC3(CC2)CN[C@H](C(=O)O)C3)n1` [Example 48, (S)-8-(2-Amino-6-((R)-1-(2,5-dibromophenyl)-2,2,2-trifluoroethoxy)pyrimidin-4-yl)-2,8-diazaspiro[4.5]decane-3-carboxylic acid]: the IC50 lay within 300 to 3000 nM. Then `CCCc1ccc(-c2cccc(S(C)(=O)=O)c2)c([C@@H](Oc2cc(N3CCC4(CC3)CN[C@H](C(=O)O)C4)nc(N)n2)C(F)(F)F)c1` [Example 49, (S)-8-(2-Amino-6-((R)-2,2,2-trifluoro-1-(3′-(methylsulfonyl)-4-propyl-[1,1′-biphenyl]-2-yl)ethoxy)pyrimidin-4-yl)-2,8-diazaspiro[4.5]decane-3-carboxylic acid], with < 50 nM; and `C/C=C/c1ccc(-c2cccc(S(C)(=O)=O)c2)c([C@@H](Oc2cc(N3CCC4(CC3)CN[C@H](C(=O)O)C4)nc(N)n2)C(F)(F)F)c1` [Example 50, (S)-8-(2-Amino-6-((R)-2,2,2-trifluoro-1-(3′-(methylsulfonyl)-4-((E)-prop-1-en-1-yl)-[1,1′-biphenyl]-2-yl)ethoxy)pyrimidin-4-yl)-2,8-diazaspiro[4.5]decane-3-carboxylic acid], with 50 to 300 nM.

As for `Cc1ccc(-c2ccc([C@@H](Oc3cc(N4CCC5(CC4)CN[C@H](C(=O)O)C5)nc(N)n3)C(F)(F)F)c(-c3cccc(S(C)(=O)=O)c3)c2)cc1C` [Example 52a, (S)-8-(2-Amino-6-((R)-1-(3,4-dimethyl-3″-(methylsulfonyl)-[1,1′:3′,1″-terphenyl]-4′-yl)-2,2,2-trifluoroethoxy)pyrimidin-4-yl)-2,8-diazaspiro[4.5]decane-3-carboxylic acid], the 50% inhibitory concentration (IC50) was < 50 nM. With `CS(=O)(=O)c1cccc(-c2cc(-c3ccc4ncccc4c3)ccc2[C@@H](Oc2cc(N3CCC4(CC3)CN[C@H](C(=O)O)C4)nc(N)n2)C(F)(F)F)c1` [Example 52b, (S)-8-(2-amino-6-((R)-2,2,2-trifluoro-1-(3′-(methylsulfonyl)-5-(quinolin-6-yl)-[1,1′-biphenyl]-2-yl)ethoxy)pyrimidin-4-yl)-2,8-diazaspiro[4.5]decane-3-carboxylic acid], the IC50 was < 50 nM. Consider `C/C=C/c1ccc([C@@H](Oc2cc(N3CCC4(CC3)CN[C@H](C(=O)O)C4)nc(N)n2)C(F)(F)F)c(-c2cccc(S(C)(=O)=O)c2)c1` [Example 53, (S)-8-(2-Amino-6-((R)-2,2,2-trifluoro-1-(3′-(methylsulfonyl)-5-((E)-prop-1-en-1-yl)-[1,1′-biphenyl]-2-yl)ethoxy)pyrimidin-4-yl)-2,8-diazaspiro[4.5]decane-3-carboxylic acid], for which the IC50 is < 50 nM. `CCCc1ccc([C@@H](Oc2cc(N3CCC4(CC3)CN[C@H](C(=O)O)C4)nc(N)n2)C(F)(F)F)c(-c2cccc(S(C)(=O)=O)c2)c1` [Example 54a, (S)-8-(2-Amino-6-((R)-2,2,2-trifluoro-1-(3′-(methylsulfonyl)-5-propyl-[1,1′-biphenyl]-2-yl)ethoxy)pyrimidin-4-yl)-2,8-diazaspiro[4.5]decane-3-carboxylic acid]: the IC50 is < 50 nM. With `CC(C)Oc1ccc(-c2ccc([C@@H](Oc3cc(N4CCC5(CC4)CN[C@H](C(=O)O)C5)nc(N)n3)C(F)(F)F)c(-c3ccccc3)c2)cc1` [Example 54b, (S)-8-(2-amino-6-((R)-2,2,2-trifluoro-1-(4-isopropoxy-[1,1′:3′,1″-terphenyl]-4′-yl)ethoxy)pyrimidin-4-yl)-2,8-diazaspiro[4.5]decane-3-carboxylic acid], the IC50 was in the range of 50 to 300 nM. With `CCCOc1ccc(-c2ccc([C@@H](Oc3cc(N4CCC5(CC4)CN[C@H](C(=O)O)C5)nc(N)n3)C(F)(F)F)c(-c3ccccc3)c2)cc1` [Example 54c, (S)-8-(2-amino-6-((R)-2,2,2-trifluoro-1-(4-propoxy-[1,1′:3′,1″-terphenyl]-4′-yl)ethoxy)pyrimidin-4-yl)-2,8-diazaspiro[4.5]decane-3-carboxylic acid], the IC50 is < 50 nM.
